Key:
[1] = Liquid, Constant-volume piezometry
[2] = xn = mol fraction of the nth substance listed; conditions: Liquid

c1ccc2[nH]ccc2c1 [1H-indole]
specific volume [m3/kg], [1]
Conditions	323.15 K	333.15 K	343.15 K	353.15 K
100 kPa	0.0009295	0.000936	0.0009428	0.0009499
10000 kPa	–	0.0009315	0.0009381	0.0009449
20000 kPa	–	0.0009273	0.0009335	0.0009402
30000 kPa	–	0.0009228	0.0009292	0.0009358
40000 kPa	–	0.0009192	0.0009249	0.0009313
50000 kPa	–	0.0009157	0.0009209	0.0009273
60000 kPa	–	–	0.0009173	0.0009231
70000 kPa	–	–	0.000914	0.0009195
80000 kPa	–	–	0.0009103	0.0009158
90000 kPa	–	–	–	0.0009123
100000 kPa	–	–	–	0.0009091
110000 kPa	–	–	–	0.0009059

c1ccc2[nH]ccc2c1 [1H-indole] + c1ccc(-c2ccccc2)cc1
specific volume [m3/kg], [2], 100 kPa
Conditions	303.15 K	313.15 K	323.15 K	333.15 K	343.15 K	353.15 K	363.15 K
x1 = 0.25	–	–	0.0009769	0.0009848	0.0009924	0.001	0.001009
x1 = 0.5	0.0009477	0.000955	0.0009624	0.0009698	0.000977	0.0009848	0.0009924
x1 = 0.75	0.0009328	0.0009393	0.0009462	0.0009538	0.0009599	0.0009675	0.0009747
x1 = 1	–	–	0.0009295	0.000936	0.0009428	0.0009499	–

specific volume [m3/kg], [2], 333.15 K, Constant-volume piezometry
Conditions	x1 = 0.25	x1 = 0.5	x1 = 0.75	x1 = 1
100 kPa	0.0009848	0.0009698	0.0009538	0.000936
10000 kPa	0.0009792	0.0009648	0.0009488	0.0009315
20000 kPa	0.0009737	0.0009601	0.0009442	0.0009273
30000 kPa	–	0.0009553	0.0009399	0.0009228
40000 kPa	–	0.0009507	0.0009356	0.0009192
50000 kPa	–	0.0009464	0.0009316	0.0009157
60000 kPa	–	0.0009423	0.0009278	–
70000 kPa	–	0.0009384	0.0009241	–
80000 kPa	–	0.0009347	0.0009205	–
90000 kPa	–	–	0.0009171	–
100000 kPa	–	–	0.0009139	–
110000 kPa	–	–	0.0009108	–
120000 kPa	–	–	0.0009077	–
130000 kPa	–	–	0.0009047	–
140000 kPa	–	–	0.000902	–
150000 kPa	–	–	0.0008991	–
160000 kPa	–	–	0.0008965	–
170000 kPa	–	–	0.0008939	–

Cc1ccc2ccccc2c1 [2-methylnaphthalene]
[1]
Conditions	specific volume [m3/kg]
303.15 K, 100 kPa	0.001001
313.15 K, 100 kPa	0.001009
323.15 K, 100 kPa	0.001017
333.14 K, 100 kPa	0.001025
333.15 K, 100 kPa	0.001025
333.15 K, 10000 kPa	0.001018
333.15 K, 20000 kPa	0.001012
333.15 K, 30000 kPa	0.001007
333.15 K, 40000 kPa	0.001001
333.15 K, 50000 kPa	0.0009961
333.15 K, 60000 kPa	0.0009915
333.15 K, 70000 kPa	0.0009868
333.15 K, 80000 kPa	0.0009826
333.15 K, 90000 kPa	0.0009784
333.15 K, 100000 kPa	0.0009749
343.15 K, 100 kPa	0.001033
343.15 K, 10000 kPa	0.001026
343.15 K, 20000 kPa	0.00102
343.15 K, 30000 kPa	0.001014
343.15 K, 40000 kPa	0.001008
343.15 K, 50000 kPa	0.001003
343.15 K, 60000 kPa	0.0009977
343.15 K, 70000 kPa	0.0009932
343.15 K, 80000 kPa	0.0009885
343.15 K, 90000 kPa	0.0009843
343.15 K, 100000 kPa	0.0009802
343.15 K, 110000 kPa	0.0009764
343.15 K, 120000 kPa	0.0009725
343.15 K, 130000 kPa	0.0009689
343.15 K, 140000 kPa	0.0009655
353.15 K, 100 kPa	0.001041

Cc1ccc2ccccc2c1 [2-methylnaphthalene] + c1ccc2[nH]ccc2c1
[2], 100 kPa, x2 = 0
Conditions	specific volume [m3/kg]
303.15 K	0.001001
313.15 K	0.001009
323.15 K	0.001017
333.15 K	0.001025
343.15 K	0.001033
353.15 K	0.001041

[2], 333.15 K, Constant-volume piezometry, x2 = 0
Conditions	specific volume [m3/kg]
100 kPa	0.001025
10000 kPa	0.001018
20000 kPa	0.001012
30000 kPa	0.001007
40000 kPa	0.001001
50000 kPa	0.0009961
60000 kPa	0.0009915
70000 kPa	0.0009868
80000 kPa	0.0009826
90000 kPa	0.0009784
100000 kPa	0.0009749

c1ccccc1 [benzene]
Conditions	specific volume [m3/kg]
[1], 293.15 K, 101.33 kPa	0.001138

c1ccc(-c2ccccc2)cc1 [biphenyl]
[1]
Conditions	specific volume [m3/kg]
333.15 K, 100 kPa	0.0009985
343.15 K, 100 kPa	0.001007
353.15 K, 100 kPa	0.001015
353.15 K, 10000 kPa	0.001008
353.15 K, 20000 kPa	0.001002
353.15 K, 30000 kPa	0.0009956
363.15 K, 100 kPa	0.001024
363.16 K, 100 kPa	0.001024
363.16 K, 10000 kPa	0.001016
363.16 K, 20000 kPa	0.00101
363.16 K, 30000 kPa	0.001003
363.16 K, 40000 kPa	0.000997
363.16 K, 50000 kPa	0.0009917
363.16 K, 60000 kPa	0.0009864
363.16 K, 70000 kPa	0.0009815

c1ccc(-c2ccccc2)cc1 [biphenyl] + c1ccc2[nH]ccc2c1
Conditions	specific volume [m3/kg]
[2], 333.15 K, 100 kPa, Constant-volume piezometry, x2 = 0	0.0009985

[2], 100 kPa, x2 = 0
Conditions	specific volume [m3/kg]
333.15 K	0.0009985
343.15 K	0.001007
353.15 K	0.001015
363.15 K	0.001024

— the NIST ThermoML archive (doi:10.1007/s10765-009-0625-z)
